# According to patent publication US7084158B2, “Substituted propargylamines” (Bayer Cropscience S.A., priority 2001, dated 2006):
# Test system: Diabrotica undecimpunctata
# Test: Example C: corn rootworm eggs with maize corn, mortality
# Assay type: in vivo
# Parameters: key: compounds were considered to be active when, at a concentration of 500 ppm or less, they had an activity on the harmful organisms of 50% or more
# Settings: 500 ppm or less; 4-5-day-old eggs; after 6 days
row,Compound,effect on the eggs and hatched larvae (mortality)
1,FC(F)(F)c1cccc(C#CCN2CCCC(C(F)(F)F)C2)c1 (stereo not drawn) [Example 297],active
2,COc1ccc(-c2ccc(C#CCN3CCC(C)CC3)cc2F)cc1 [Example 231],active
3,CCS(=O)(=O)O.Cc1cc(C(F)(F)F)cc(C#CCN2CCC(C)CC2)n1 [Example 1064],active
4,CC1CCN(CC#Cc2cc(C(F)(F)F)cc(C(F)(F)F)c2)CC1.O=C(O)/C=C\C(=O)O [Example 1056],active
5,FC(F)(F)c1cc(C#CCN2CCC(C(F)(F)F)CC2)cc(C(F)(F)F)c1 [Example 205],active
6,FC(F)(F)c1cc(C#CCN2CCCC(C(F)(F)F)C2)cc(C(F)(F)F)c1 (stereo not drawn) [Example 281],active
7,CC1CCN(CC#Cc2ccc(C(F)(F)F)cn2)CC1 [Example 58],active
8,FC(F)(F)c1cc(C#CCN2CCCC(C(F)(F)F)C2)nc(C(F)(F)F)c1 (stereo not drawn) [Example 282],active
9,CC1(C)CCCN(CC#Cc2cc(C(F)(F)F)cc(C(F)(F)F)c2)C1.Cl [Example 1001],active
10,CC1CCN(CC#Cc2c(Cl)cc(C(F)(F)F)cc2Cl)CC1 [Example 295],active
11,CC1CCN(CC#Cc2cc(C(F)(F)F)cc(C(F)(F)F)c2)CC1C (stereo not drawn) [Example 267],active
12,Cl.FC(F)(F)c1cc(C#CCN2CCC(C(F)(F)F)CC2)nc(C(F)(F)F)c1 [Example 1050],active
13,CC1CCCN(CC#Cc2cc(C(F)(F)F)cc(C(F)(F)F)c2)C1 (stereo not drawn) [Example 31],active
14,Cc1cc(C)nc(C#CCN2CCC(C)CC2)c1 [Example 201],active
15,CC1CCN(CC#Cc2ccc(Br)c(F)c2)CC1 [Example 207],active
16,Cc1cc(C#CCN2CCC(C)CC2)cc(C(F)(F)F)c1.Cl [Example 1069],active

# Test system: Heliothis virescens
# Test: Example B: tobacco budworm eggs on filter paper/insect diet, mortality
# Assay type: in vivo
# Parameters: key: compounds were considered to be active when, at a concentration of 500 ppm or less, they had an activity on the harmful organisms of 50% or more
# Settings: 500 ppm or less; 24-hour-old eggs dipped, diet treated; after 6 days
row,Compound,effect on the eggs and hatched larvae (mortality)
1,CCOC(=O)c1cccc(-c2ccc(C#CCN3CCC(C)CC3)cc2)c1 [Example 178],active
2,CC1CCN(CC#Cc2ccc(-c3ccccc3Cl)cc2)CC1 [Example 174],active
3,CC1CCN(CC#Cc2cc(C(F)(F)F)cc(C(F)(F)F)c2)CC1.O=C(O)/C=C\C(=O)O [Example 1056],active
4,CC1CCN(CC#Cc2ccc(-c3cc(Cl)cc(Cl)c3)s2)CC1 [Example 273],active
5,CC1CCN(CC#Cc2cc(Cl)c(OC(F)(F)C(F)Cl)c(Cl)c2)CC1 (stereo not drawn) [Example 283],active
6,CC1CCN(CC#Cc2cccc(-c3ccc(C(F)(F)F)cc3)c2)CC1 [Example 217],active
7,CC1CCN(CC#Cc2ccc(-c3ccccc3)cc2)CC1 [Example 119],active
8,Cc1cc(Cl)ccc1C#CCN1CCC(C)CC1 [Example 100],active
9,CC1CCN(CC#Cc2cc(Cl)cc(Cl)c2)CC1.Cl [Example 1011],active
10,Cc1c(Cl)cccc1C#CCN1CCC(C)CC1 [Example 97],active
11,CC1CCN(CC#Cc2ccc(-c3cc(C(F)(F)F)ccc3Cl)cc2)CC1 [Example 171],active
12,CC1CCN(CC#Cc2cccc(-c3ccc(Cl)s3)c2)CC1 [Example 225],active
13,CC1CCN(CC#Cc2ccc(-c3cc(F)cc([N+](=O)[O-])c3)cc2)CC1 [Example 177],active
14,CC1CCN(CC#Cc2ccc(-c3ccc(Cl)cc3Cl)cc2)CC1 [Example 176],active
15,Cc1cc(C#CCN2CCC(C)CC2)sc1-c1ccc(F)cc1 [Example 232],active
16,CC1CCN(CC#Cc2cccc(-c3cccc4ccccc34)c2)CC1 [Example 221],active
17,CC1CCN(CC#Cc2ccc(F)c(C(F)(F)F)c2)CC1 [Example 285],active
18,CC1CCN(CC#Cc2cccc(C(F)(F)F)c2)CC1 [Example 24],active
19,CC1CCN(CC#Cc2ccc(-c3cccc(C(F)(F)F)c3)s2)CC1 [Example 229],active
20,CC1CCN(CC#Cc2ccc(C=NOCc3ccccc3)s2)CC1 [Example 292],active
21,CC1CCN(CC#Cc2ccc(C#N)c(Cl)c2)CC1 [Example 289],active
22,Cc1ccc(C#CCN2CCC(C)CC2)cc1C(F)(F)F [Example 284],active
23,Cc1ccc(-c2sc(C#CCN3CCC(C)CC3)cc2C)cc1 [Example 236],active
24,CCc1ccc(C#CCN2CCC(C)CC2)cc1F [Example 254],active

row,Compound,effect on the eggs and hatched larvae (mortality)
1,CC1CCN(CC#Cc2ccc(C=NOCc3ccc(Cl)cc3Cl)s2)CC1 [Example 296],active
2,CC1CCN(CC#Cc2ccc(-c3cccc(Cl)c3)s2)CC1 [Example 247],active
3,CC1CCN(CC#Cc2ccc(Cl)s2)CC1 [Example 216],active
4,CC1CCN(CC#Cc2ccnc(C(F)(F)F)n2)CC1 [Example 167],active
5,CC1CCN(CC#Cc2cccc(-c3ccc(C#N)cc3)c2)CC1 [Example 226],active
6,CC(=O)c1ccc(C#CCN2CCC(C)CC2)s1 [Example 214],active
7,CC1CCN(CC#Cc2cccc(-c3ccc(Cl)cc3)c2)CC1 [Example 222],active
8,CC1CCN(CC#Cc2ccc(Cl)cc2Cl)CC1.Cl [Example 1000],active
9,CC1CCN(CC#Cc2ccc(-c3ccccc3)s2)CC1 [Example 240],active
10,CC1CCN(CC#Cc2c(Cl)cc(C(F)(F)F)cc2Cl)CC1 [Example 295],active
11,CC1CCN(CC#Cc2ccc(-c3cc(C(F)(F)F)cc(C(F)(F)F)c3)s2)CC1 [Example 271],active
12,COc1ccc(-c2ccc(C#CCN3CCC(C)CC3)cc2)cc1 [Example 181],active
13,CC1CCN(CC#Cc2ccc(-c3cccc(C(F)(F)F)c3)cc2)CC1 [Example 182],active
14,Cc1cc(C)nc(C#CCN2CCC(C)CC2)c1 [Example 201],active
15,CC1CCN(CC#Cc2cccc(-c3cnc(Cl)c(Cl)c3)c2)CC1 [Example 224],active
16,Cc1cccc(-c2ccc(C#CCN3CCC(C)CC3)s2)c1 [Example 246],active
17,CC1CCN(CC#Cc2ccc(-c3ccc(C(F)(F)F)cc3)cc2)CC1 [Example 172],active
18,Cc1cc(C#CCN2CCC(C)CC2)sc1-c1ccc(Cl)cc1 [Example 239],active
19,CC1CCN(CC#Cc2ccc(Br)c(F)c2)CC1 [Example 207],active
20,CC1CCN(CC#Cc2ccc(-c3ccc(OC(F)(F)F)cc3)s2)CC1 [Example 244],active
21,CC1CCN(CC#Cc2ccc(-c3cccc(Cl)c3)cc2)CC1 [Example 173],active
22,Cc1ccc(-c2ccc(C#CCN3CCC(C)CC3)s2)cc1 [Example 241],active
23,CC1CCN(CC#Cc2ccc(Br)s2)CC1 [Example 215],active
24,CC1CCN(CC#Cc2ccc(F)c(Cl)c2)CC1 [Example 124],active

# Test system: Aedes aegypti
# Test: Example AG: microtiter plate, yellow fever mosquito larvicidal activity
# Assay type: in vivo
# Parameters: key: compounds were considered to be active when, at a concentration of 500 ppm or less, they had an activity on the harmful organisms of 50% or more
# Settings: 500 ppm or less, after 3 days
row,Compound,larvicidal activity
1,CCS(=O)(=O)O.Cc1cc(C(F)(F)F)cc(C#CCN2CCC(C)CC2)n1 [Example 1064],active
2,Cc1ccc(-c2ccc(C#CCN3CCC(C)CC3)cc2F)cc1 [Example 248],active
3,CC1CCN(CC#Cc2ccc(C=NOCc3ccccc3)s2)CC1 [Example 292],active
4,CC1CCN(CC#Cc2ccc(C#N)c(Cl)c2)CC1 [Example 289],active
5,Cc1cc(C)nc(C#CCN2CCC(C)CC2)c1 [Example 294],active
6,CCc1ccc(C#CCN2CCC(C)CC2)cc1F [Example 254],active
7,CC1CCN(CC#Cc2ccc(Cl)s2)CC1 [Example 216],active
8,CC1CCN(CC#Cc2cc(C(F)(F)F)cc(C(F)(F)F)c2)CC1C (stereo not drawn) [Example 267],active
9,Cc1ccc(C#CCN2CCC(C)CC2)s1 [Example 293],active
10,CC1CCN(CC#Cc2ccc(-c3ccc(C(F)(F)F)cc3)s2)CC1 [Example 242],active
11,CC1CCN(CC#Cc2cccc(-c3cc(C(F)(F)F)cc(C(F)(F)F)c3)c2)CC1 [Example 218],active
12,CC1CCN(CC#Cc2ccc(-c3ccc(F)c(Cl)c3)c(F)c2)CC1 [Example 249],active
13,CC1CCN(CC#Cc2ccc(-c3ccc(OC(F)(F)F)cc3)s2)CC1 [Example 244],active
14,Cc1cc(C#CCN2CCC(C)CC2)sc1Br [Example 213],active
15,Cc1cc(C#CCN2CCC(C)CC2)cc(C(F)(F)F)c1.Cl [Example 1069],active
16,CC1CCN(CC#Cc2ccc(Br)s2)CC1 [Example 215],active
17,CC1CCN(CC#Cc2cccc(-c3cccc(Cl)c3)c2)CC1 [Example 219],active
